Data as given in PMC4685510, “A Cell Biologist’s Field Guide to Aurora Kinase Inhibitors” (Frontiers in Oncology, 2015).

Experiments:
Assay in all cases: biochemical
Type in all cases: biochemical
[1] = target: 363 human kinases (including Aurora A/B/C) (Homo sapiens, UniProt P51451); settings: BLK, [ATP] 10 µM; for remaining activity at 0.1 µM: 100 nM; for remaining activity at 0.1 µM / remaining activity at 0.5 µM: read-out: % Enzyme Activity (relative to DMSO controls)
Excerpt: (§1) However, the Aurora A/B selectivity ratios derived from our in vitro and in vivo data can be compared to prioritize inhibitors.

[2] = target: T1, 363 human kinases (including Aurora A/B/C) (Homo sapiens, UniProt Q15139); settings: PKCmu/PRKD1; for remaining activity at 0.1 µM: 100 nM; for remaining activity at 0.1 µM / remaining activity at 0.5 µM: read-out: % Enzyme Activity (relative to DMSO controls)
T1 sequence (Q15139 1-912): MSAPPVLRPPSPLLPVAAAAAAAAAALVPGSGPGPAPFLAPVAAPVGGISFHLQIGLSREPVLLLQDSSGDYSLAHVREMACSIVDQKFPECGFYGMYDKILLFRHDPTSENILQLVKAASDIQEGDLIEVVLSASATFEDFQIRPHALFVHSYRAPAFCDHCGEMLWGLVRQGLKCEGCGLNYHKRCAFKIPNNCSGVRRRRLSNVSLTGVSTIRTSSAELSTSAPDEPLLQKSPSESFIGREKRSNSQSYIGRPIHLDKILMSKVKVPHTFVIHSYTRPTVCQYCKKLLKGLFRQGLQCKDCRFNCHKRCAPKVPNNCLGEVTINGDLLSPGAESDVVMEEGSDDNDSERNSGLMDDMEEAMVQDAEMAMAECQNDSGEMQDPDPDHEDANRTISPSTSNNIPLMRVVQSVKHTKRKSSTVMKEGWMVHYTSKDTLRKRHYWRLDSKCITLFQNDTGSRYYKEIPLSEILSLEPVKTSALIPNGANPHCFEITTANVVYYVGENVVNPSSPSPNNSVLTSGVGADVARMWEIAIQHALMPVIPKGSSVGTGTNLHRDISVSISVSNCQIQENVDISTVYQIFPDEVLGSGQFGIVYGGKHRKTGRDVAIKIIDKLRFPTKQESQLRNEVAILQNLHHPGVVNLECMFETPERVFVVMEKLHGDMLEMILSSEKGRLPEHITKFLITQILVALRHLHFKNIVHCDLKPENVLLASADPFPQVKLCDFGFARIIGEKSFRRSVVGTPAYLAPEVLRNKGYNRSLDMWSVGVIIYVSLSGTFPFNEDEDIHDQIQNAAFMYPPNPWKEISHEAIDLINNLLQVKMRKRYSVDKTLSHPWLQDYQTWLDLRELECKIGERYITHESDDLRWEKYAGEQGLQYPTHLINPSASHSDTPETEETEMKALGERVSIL
Excerpt: as §1

[3] = target: 363 human kinases (including Aurora A/B/C) (Homo sapiens, UniProt O95819); settings: HGK/MAP4K4; for remaining activity at 0.1 µM: 100 nM; for remaining activity at 0.1 µM / remaining activity at 0.5 µM: read-out: % Enzyme Activity (relative to DMSO controls)
363 human kinases (including Aurora A/B/C) (Homo sapiens, UniProt O95819), sequence (O95819 whole entry): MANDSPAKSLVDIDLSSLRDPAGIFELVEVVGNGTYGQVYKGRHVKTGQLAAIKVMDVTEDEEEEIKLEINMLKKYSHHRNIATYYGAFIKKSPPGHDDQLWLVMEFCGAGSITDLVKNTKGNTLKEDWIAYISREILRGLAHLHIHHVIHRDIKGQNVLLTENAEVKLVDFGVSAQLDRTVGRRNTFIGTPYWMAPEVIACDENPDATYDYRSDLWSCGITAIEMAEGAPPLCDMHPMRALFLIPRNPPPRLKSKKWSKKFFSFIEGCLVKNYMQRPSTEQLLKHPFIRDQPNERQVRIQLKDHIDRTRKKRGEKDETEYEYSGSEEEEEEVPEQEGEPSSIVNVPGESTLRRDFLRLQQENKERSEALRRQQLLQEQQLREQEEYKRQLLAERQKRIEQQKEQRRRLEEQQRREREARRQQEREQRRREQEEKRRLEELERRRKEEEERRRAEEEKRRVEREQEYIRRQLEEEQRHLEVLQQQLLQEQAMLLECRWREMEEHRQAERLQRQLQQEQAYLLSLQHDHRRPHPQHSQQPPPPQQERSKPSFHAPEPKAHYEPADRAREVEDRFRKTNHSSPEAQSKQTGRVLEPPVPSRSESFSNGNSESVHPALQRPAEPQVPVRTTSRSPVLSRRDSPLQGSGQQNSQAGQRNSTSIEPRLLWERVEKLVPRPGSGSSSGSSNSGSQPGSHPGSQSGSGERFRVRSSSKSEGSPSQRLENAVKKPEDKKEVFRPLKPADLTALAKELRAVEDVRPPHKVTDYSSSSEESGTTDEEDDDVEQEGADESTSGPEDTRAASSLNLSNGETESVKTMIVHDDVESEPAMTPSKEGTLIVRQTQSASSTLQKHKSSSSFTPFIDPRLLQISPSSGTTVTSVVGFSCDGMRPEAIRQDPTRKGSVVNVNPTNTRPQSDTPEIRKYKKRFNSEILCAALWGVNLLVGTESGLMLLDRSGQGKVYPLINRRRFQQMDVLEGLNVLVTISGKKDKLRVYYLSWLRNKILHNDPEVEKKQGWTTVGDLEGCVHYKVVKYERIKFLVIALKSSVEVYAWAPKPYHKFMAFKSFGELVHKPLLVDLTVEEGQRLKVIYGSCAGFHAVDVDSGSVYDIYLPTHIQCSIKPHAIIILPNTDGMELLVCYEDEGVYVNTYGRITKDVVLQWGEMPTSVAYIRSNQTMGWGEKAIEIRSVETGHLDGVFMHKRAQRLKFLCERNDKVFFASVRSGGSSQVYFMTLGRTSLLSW
Excerpt: as §1

[4] = target: T2, 363 human kinases (including Aurora A/B/C) (Homo sapiens, UniProt Q13188); settings: MST2/STK3; for remaining activity at 0.1 µM: 100 nM; for remaining activity at 0.1 µM / remaining activity at 0.5 µM: read-out: % Enzyme Activity (relative to DMSO controls)
T2 sequence (Q13188 1-491): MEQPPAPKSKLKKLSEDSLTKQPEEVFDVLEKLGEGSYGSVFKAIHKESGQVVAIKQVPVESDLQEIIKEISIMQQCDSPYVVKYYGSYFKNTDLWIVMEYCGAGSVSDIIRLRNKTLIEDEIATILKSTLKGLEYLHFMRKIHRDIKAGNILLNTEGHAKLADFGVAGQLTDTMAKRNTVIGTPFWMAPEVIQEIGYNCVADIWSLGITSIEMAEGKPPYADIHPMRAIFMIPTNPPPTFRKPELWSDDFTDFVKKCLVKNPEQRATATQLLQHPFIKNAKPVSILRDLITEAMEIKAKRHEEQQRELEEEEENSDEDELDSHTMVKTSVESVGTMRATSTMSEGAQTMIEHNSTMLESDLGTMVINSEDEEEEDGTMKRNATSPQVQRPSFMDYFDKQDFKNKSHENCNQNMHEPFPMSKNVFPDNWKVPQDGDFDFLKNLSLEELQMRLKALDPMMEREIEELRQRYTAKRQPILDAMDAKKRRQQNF
Excerpt: as §1

[5] = target: T3, 363 human kinases (including Aurora A/B/C) (Homo sapiens, UniProt P30530); settings: AXL, [ATP] 100 µM; for remaining activity at 0.1 µM: 100 nM; for remaining activity at 0.1 µM / remaining activity at 0.5 µM: read-out: % Enzyme Activity (relative to DMSO controls)
T3 sequence (P30530 26-894): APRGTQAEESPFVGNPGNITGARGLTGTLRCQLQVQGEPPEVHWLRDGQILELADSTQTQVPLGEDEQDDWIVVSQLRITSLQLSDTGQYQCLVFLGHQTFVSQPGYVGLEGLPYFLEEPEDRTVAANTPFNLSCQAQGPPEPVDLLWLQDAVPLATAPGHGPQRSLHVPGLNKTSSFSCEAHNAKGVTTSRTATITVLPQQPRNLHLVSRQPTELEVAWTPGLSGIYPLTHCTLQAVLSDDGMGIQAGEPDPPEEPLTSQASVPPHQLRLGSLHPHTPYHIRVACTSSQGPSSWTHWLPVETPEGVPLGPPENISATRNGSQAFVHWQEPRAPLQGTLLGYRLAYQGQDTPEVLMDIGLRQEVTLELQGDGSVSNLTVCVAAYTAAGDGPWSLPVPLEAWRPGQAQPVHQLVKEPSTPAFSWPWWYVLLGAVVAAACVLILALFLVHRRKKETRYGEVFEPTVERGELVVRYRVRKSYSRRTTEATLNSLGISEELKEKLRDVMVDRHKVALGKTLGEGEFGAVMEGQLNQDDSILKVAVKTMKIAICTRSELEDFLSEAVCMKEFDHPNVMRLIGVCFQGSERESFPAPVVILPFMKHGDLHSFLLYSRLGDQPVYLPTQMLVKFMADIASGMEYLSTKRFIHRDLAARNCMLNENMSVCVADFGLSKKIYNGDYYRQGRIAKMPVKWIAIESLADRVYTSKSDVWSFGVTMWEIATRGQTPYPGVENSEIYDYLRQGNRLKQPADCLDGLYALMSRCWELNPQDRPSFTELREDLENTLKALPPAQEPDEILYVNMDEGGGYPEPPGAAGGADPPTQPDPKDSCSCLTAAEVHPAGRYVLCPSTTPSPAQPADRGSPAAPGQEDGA
Excerpt: as §1

[6] = target: 363 human kinases (including Aurora A/B/C) (Homo sapiens, UniProt P04049); settings: RAF1; for remaining activity at 0.1 µM: 100 nM; for remaining activity at 0.1 µM / remaining activity at 0.5 µM: read-out: % Enzyme Activity (relative to DMSO controls)
363 human kinases (including Aurora A/B/C) (Homo sapiens, UniProt P04049), sequence (P04049 whole entry): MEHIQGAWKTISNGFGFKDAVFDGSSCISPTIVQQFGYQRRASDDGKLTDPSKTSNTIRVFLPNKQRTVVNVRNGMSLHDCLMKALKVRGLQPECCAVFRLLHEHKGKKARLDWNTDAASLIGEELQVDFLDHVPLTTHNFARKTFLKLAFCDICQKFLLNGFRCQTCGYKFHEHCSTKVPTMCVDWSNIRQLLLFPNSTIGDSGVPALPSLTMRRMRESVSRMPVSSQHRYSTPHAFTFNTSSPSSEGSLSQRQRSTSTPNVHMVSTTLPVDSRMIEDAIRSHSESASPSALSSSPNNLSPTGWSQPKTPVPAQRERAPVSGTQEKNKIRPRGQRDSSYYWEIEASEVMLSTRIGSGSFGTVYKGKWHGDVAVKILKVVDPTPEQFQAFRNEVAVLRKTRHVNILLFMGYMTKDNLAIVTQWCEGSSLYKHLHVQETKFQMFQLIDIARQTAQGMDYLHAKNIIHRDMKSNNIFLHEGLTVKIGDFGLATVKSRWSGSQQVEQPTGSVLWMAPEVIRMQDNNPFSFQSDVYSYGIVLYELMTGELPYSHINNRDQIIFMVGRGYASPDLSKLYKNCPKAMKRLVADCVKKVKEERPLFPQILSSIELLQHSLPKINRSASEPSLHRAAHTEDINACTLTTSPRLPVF
Excerpt: as §1

[7] = target: 363 human kinases (including Aurora A/B/C) (Homo sapiens, UniProt P32298); settings: GRK4; for remaining activity at 0.1 µM: 100 nM; for remaining activity at 0.1 µM / remaining activity at 0.5 µM: read-out: % Enzyme Activity (relative to DMSO controls)
363 human kinases (including Aurora A/B/C) (Homo sapiens, UniProt P32298), sequence (P32298 whole entry): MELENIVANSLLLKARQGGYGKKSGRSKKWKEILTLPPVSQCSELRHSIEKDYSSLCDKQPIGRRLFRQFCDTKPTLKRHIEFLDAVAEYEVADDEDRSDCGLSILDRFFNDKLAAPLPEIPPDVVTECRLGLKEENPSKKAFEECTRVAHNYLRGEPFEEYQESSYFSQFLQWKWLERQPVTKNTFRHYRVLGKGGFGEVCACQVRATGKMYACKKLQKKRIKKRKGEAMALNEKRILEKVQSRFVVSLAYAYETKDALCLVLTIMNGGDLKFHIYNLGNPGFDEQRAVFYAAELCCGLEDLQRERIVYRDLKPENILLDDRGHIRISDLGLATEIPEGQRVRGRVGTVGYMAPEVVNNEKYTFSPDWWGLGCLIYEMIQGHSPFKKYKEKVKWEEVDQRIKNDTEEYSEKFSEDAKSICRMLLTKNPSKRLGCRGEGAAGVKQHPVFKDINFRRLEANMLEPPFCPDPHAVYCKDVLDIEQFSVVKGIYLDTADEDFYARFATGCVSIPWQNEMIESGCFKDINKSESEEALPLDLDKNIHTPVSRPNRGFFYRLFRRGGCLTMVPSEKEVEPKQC
Excerpt: as §1

363 human kinases (including Aurora A/B/C) (Homo sapiens, UniProt P51451), sequence (P51451 whole entry): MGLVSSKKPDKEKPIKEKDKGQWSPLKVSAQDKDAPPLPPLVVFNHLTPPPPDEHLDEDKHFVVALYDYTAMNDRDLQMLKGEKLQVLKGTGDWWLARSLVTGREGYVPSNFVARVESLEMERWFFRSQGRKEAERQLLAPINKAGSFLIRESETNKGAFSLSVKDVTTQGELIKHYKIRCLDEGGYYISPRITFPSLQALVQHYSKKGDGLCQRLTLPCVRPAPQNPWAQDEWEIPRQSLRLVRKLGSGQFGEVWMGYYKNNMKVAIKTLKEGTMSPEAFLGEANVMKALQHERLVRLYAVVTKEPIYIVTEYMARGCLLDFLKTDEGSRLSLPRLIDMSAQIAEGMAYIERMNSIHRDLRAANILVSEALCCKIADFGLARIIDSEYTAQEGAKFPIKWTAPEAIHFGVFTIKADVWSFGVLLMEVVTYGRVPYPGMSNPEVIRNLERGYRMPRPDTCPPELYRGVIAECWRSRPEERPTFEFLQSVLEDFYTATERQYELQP

CCn1cc(-c2ccnc3[nH]c(-c4cccc(CN(C)C)c4)cc23)c(-c2ccc(NC(=O)N(C)C)cc2)n1 [GSK1070916]
remaining activity at 0.1 µM [1]: 85% | remaining activity at 0.1 µM [2]: 85.4% | remaining activity at 0.1 µM [3]: 87.5% | remaining activity at 0.1 µM [4]: 91.8% | remaining activity at 0.1 µM [5]: 103% | remaining activity at 0.1 µM [6]: 100% | remaining activity at 0.1 µM [7]: 95.2%

O=C(c1cccc(Cl)c1F)N1CCN(Cc2cccc(Nc3nccs3)n2)CC1 [MK-8745]
% Enzyme Activity (relative to DMSO controls) ([1]; 500 nM): 72.45% | remaining activity at 0.5 µM ([1]; 500 nM): 72.7% | % Enzyme Activity (relative to DMSO controls) ([2]; 500 nM): 97.14% | remaining activity at 0.5 µM ([2]; 500 nM): 98.5% | % Enzyme Activity (relative to DMSO controls) ([3]; 500 nM): 88.10% | remaining activity at 0.5 µM ([3]; 500 nM): 89.1% | % Enzyme Activity (relative to DMSO controls) ([4]; 500 nM): 46.05% | remaining activity at 0.5 µM ([4]; 500 nM): 46.6% | % Enzyme Activity (relative to DMSO controls) ([5]; 500 nM): 9.19% | remaining activity at 0.5 µM ([5]; 500 nM): 9.98% | % Enzyme Activity (relative to DMSO controls) ([6]; 500 nM): 93.98% | remaining activity at 0.5 µM ([6]; 500 nM): 95.6% | % Enzyme Activity (relative to DMSO controls) ([7]; 500 nM): 94.47% | remaining activity at 0.5 µM ([7]; 500 nM): 94.8%

O=C(O)[C@]1(Cc2cccc(Nc3nccs3)n2)CC[C@@H](Oc2cccc(Cl)c2F)CC1 [MK-5108]
remaining activity at 0.1 µM [1]: 54.8% | remaining activity at 0.5 µM ([1]; 500 nM): 17.1% | remaining activity at 0.1 µM [2]: 108% | remaining activity at 0.5 µM ([2]; 500 nM): 99% | remaining activity at 0.1 µM [3]: 95.5% | remaining activity at 0.5 µM ([3]; 500 nM): 72.9% | remaining activity at 0.1 µM [4]: 87.7% | remaining activity at 0.5 µM ([4]; 500 nM): 48.4% | remaining activity at 0.1 µM [5]: 38.5% | remaining activity at 0.5 µM ([5]; 500 nM): 14% | remaining activity at 0.1 µM [6]: 97.7% | remaining activity at 0.5 µM ([6]; 500 nM): 94.8% | remaining activity at 0.1 µM [7]: 96.7% | remaining activity at 0.5 µM ([7]; 500 nM): 92.9%
